From ChEMBL document CHEMBL5034036, “Aryloxy Pivaloyloxymethyl Prodrugs as Nucleoside Monophosphate Prodrugs” (J Med Chem, 2021)

Experiments:
A549 [1] = test: Cytotoxicity against human A549 cells after 24 hrs measured by MTT assay; type: functional, cell-based; settings: A549, 24 h
MCF7 [2] = test: Cytotoxicity against human MCF7 cells assessed as inhibition of cell proliferation measured after 48 hrs by MTT assay; type: functional, cell-based; settings: MCF7, 48 h
MCF7 [3] = test: Cytotoxicity against human MCF7 cells assessed as inhibition of cell proliferation measured after 24 hrs by MTT assay; type: functional, cell-based; settings: MCF7, 24 h
A549 [4] = test: Cytotoxicity against human A549 cells after 48 hrs measured by MTT assay; type: functional, cell-based; settings: A549, 48 h
Liver carboxylesterase = molecular target: T1, Liver carboxylesterase (Sus scrofa, UniProt Q29550); test: Stability in porcine liver esterase assessed as intact compound measured by NMR analysis; type: ADME; settings: pig
T1 sequence (Q29550 whole entry): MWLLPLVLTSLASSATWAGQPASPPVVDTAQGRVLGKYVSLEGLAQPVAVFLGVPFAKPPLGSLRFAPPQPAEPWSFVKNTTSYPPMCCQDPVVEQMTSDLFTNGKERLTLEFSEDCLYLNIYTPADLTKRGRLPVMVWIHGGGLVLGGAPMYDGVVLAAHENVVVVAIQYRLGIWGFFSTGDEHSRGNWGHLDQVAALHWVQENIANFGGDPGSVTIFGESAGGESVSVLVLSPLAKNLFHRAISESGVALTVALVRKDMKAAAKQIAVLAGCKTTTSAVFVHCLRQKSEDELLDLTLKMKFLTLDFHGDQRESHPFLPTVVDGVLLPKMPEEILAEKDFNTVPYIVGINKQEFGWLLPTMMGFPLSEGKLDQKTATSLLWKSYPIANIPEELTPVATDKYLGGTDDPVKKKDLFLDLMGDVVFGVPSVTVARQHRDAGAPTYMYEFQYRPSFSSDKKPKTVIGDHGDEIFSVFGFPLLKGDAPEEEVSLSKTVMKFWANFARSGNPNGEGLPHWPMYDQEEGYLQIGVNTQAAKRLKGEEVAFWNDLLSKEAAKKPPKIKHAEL

[5] = Serum stability of the compound in human serum assessed as half life measured by 31P-NMR analysis; type: ADME, cell-free
[6] = Drug metabolism assessed as recombinant carboxypeptidase Y-mediated metabolite formation measured measured by 31P-NMR analysis; type: ADME; settings: saccharomyces cerevisiae
[7] = Drug metabolism in human serum assessed as metabolite B formation by 31P-NMR analysis; type: ADME, cell-free

Structure (SMILES) | IC50 (A549 [1]) [µM] | IC50 (MCF7 [2]) [µM] | IC50 (MCF7 [3]) [µM] | IC50 (A549 [4]) [µM] | Stability (Liver carboxylesterase) | half-life [5] [h] | Drug metabolism [6] | Drug metabolism [7]
CC(C)(C)C(=O)OCOP(=O)(OC[C@H]1O[C@@H](n2cc(F)c(=O)[nH]c2=O)C[C@@H]1O)Oc1cccc2ccccc12 (stereo partly drawn) | 52.5 | 35.5 | 28.8 | 34.5 | – | – | – | –
CC(C)(C)C(=O)OCOP(=O)(OC[C@H]1O[C@@H](n2cc(F)c(=O)[nH]c2=O)C[C@@H]1O)Oc1ccccc1 (stereo partly drawn) | – | 13.1 | 63.6 | – | Stable | ≥ 12 | Metabolite_Notdetected | Metabolite_Detected
O=c1[nH]c(=O)n([C@H]2C[C@H](O)[C@@H](CO)O2)cc1F [FLOXURIDINE] | > 100 | 46.9 | > 100 | > 100 | – | – | – | –
COC(=O)[C@H](C)NP(=O)(OC[C@H]1O[C@@H](n2cc(F)c(=O)[nH]c2=O)C[C@@H]1O)Oc1ccccc1 (stereo partly drawn) | 69.5 | 84.8 | > 100 | 36 | – | – | – | –
